Experimental data reported in ChEMBL document CHEMBL3612062, “Antitumor activity of endoperoxide-iron chelator conjugates-design, synthesis and biological evaluation” (Eur J Med Chem, 2015).
pIC50: −log10 of the molar value.

Experiments:
HL-60 = experiment: Cytotoxicity against human HL60 cells after 48 hrs by MTT assay; assay type: functional, cell-based; details: HL-60, 48 h
A549 = experiment: Cytotoxicity against human A549 cells after 48 hrs by MTT assay; assay type: functional, cell-based; details: A549, 48 h
SW480 = experiment: Cytotoxicity against human SW480 cells after 48 hrs by MTT assay; assay type: functional, cell-based; details: SW480, 48 h
SMMC-7721 [1] = experiment: Cytotoxicity against human SMMC7721 cells after 48 hrs by MTT assay; assay type: functional, cell-based; details: SMMC-7721, 48 h
[2] = Cytotoxicity against human HL7702 cells after 48 hrs by MTT assay; assay type: cell-based; details: L02, 48 h
SMMC-7721 [3] = experiment: Increase of cell survival in human SMMC7721 at 50 uM after 48 hrs by MTT assay in presence of deferoxamine; assay type: functional
[4] = Selectivity ratio of IC50 for human HL7702 cells to IC50 for human SMMC7721 cells; assay type: ADME, cell-based, SMMC-7721; details: HL7702 cells versus SMMC7721 cells, read-out: Ratio IC50
[5] = Metal chelating activity of the compound assessed as formation of iron-compound complex at 100 uM using FeSO4 by UV-vis spectrometry; assay type: physicochemical
[6] = Metal chelating activity of the compound assessed as formation of iron-compound complex at 100 uM using FeCl3 by UV-vis spectrometry; assay type: physicochemical
[7] = Binding affinity to ferric oxide assessed as dissociation degree at 1:1 ligand to metal ratio by UV-visible spectrophotometry
[8] = Stability of the compound-ferric oxide complex; assay type: physicochemical
SMMC-7721 [9] = experiment: Cytotoxicity against human SMMC7721 cells assessed activity loss of cells at 5 uM after 48 hrs by MTT assay; assay type: functional
SMMC-7721 [10] = experiment: Induction of apoptosis in human SMMC7721 cells at 10 uM after 24 hrs using annexin-V FITC and propidium iodide staining by flow cytometry analysis; assay type: functional
SMMC-7721 [11] = experiment: Induction of apoptosis in human SMMC7721 cells at 20 uM after 24 hrs using annexin-V FITC and propidium iodide staining by flow cytometry analysis; assay type: functional
[12] = Binding affinity to ferric oxide assessed as dissociation degree at 2:1 ligand to metal ratio by UV-visible spectrophotometry
SMMC-7721 [13] = experiment: Induction of apoptosis in human SMMC7721 cells after 24 hrs using annexin-V FITC and propidium iodide staining by flow cytometry analysis; assay type: functional, cell-based

Compound	pIC50 (HL-60)	pIC50 (A549)	pIC50 (SW480)	pIC50 (SMMC-7721 [1])	pIC50 [2]	Activity (SMMC-7721 [3]) [%]	selectivity ratio [4]	Activity [5]	Activity [6]	Activity [7] [%]	Stability [8]	Activity (SMMC-7721 [9]) [%]	Activity (SMMC-7721 [10]) [%]	Activity (SMMC-7721 [11]) [%]	Activity [12] [%]	Activity (SMMC-7721 [13])
O=C(N[C@H]1CC[C@]2(CC1)OC[C@]1(O2)C2CC3CC(C2)CC1C3)c1ccc(O)c(O)c1 (mixture of isomers)	4.45	< 4.30	< 4.30	< 4.30	< 4.30	–	–	–	–	–	–	–	–	–	–	–
Nc1ccc(O)c2ncccc12	4.86	< 4.30	< 4.30	< 4.30	< 4.30	–	–	–	–	–	–	–	–	–	–	–
O=C(NO)[C@H]1CC[C@]2(CC1)OO[C@]1(O2)C2CC3CC(C2)CC1C3 (mixture of isomers)	< 4.30	< 4.30	< 4.30	< 4.30	< 4.30	–	–	–	–	–	–	–	–	–	–	–
O=C(NO)C1CCC2(CC1)OOC1(OO2)C2CC3CC(C2)CC1C3 (centres undefined)	< 4.30	< 4.30	< 4.30	< 4.30	< 4.30	–	–	–	–	–	–	–	–	–	–	–
O=C(O)[C@H]1CC[C@@]2(CC1)OC[C@]1(OO2)C2CC3CC(C2)CC1C3	< 4.00	< 4.00	< 4.00	< 4.00	< 4.00	–	–	–	–	–	–	–	–	–	–	–
O=C(N[C@H]1CC[C@]2(CC1)OO[C@]1(O2)C2CC3CC(C2)CC1C3)c1ccc(O)c(O)c1 (mixture of isomers)	4.51	< 4.30	< 4.30	< 4.30	< 4.30	10	–	–	–	–	–	–	–	–	–	–
Oc1ccc(N[C@H]2CC[C@@]3(CC2)OC[C@]2(OO3)C3CC4CC(C3)CC2C4)c2cccnc12 (mixture of isomers)	5.18	4.62	< 4.30	4.96	4.44	15	3.28	–	–	–	–	–	–	–	–	–
Oc1ccc(N[C@H]2CC[C@]3(CC2)OO[C@]2(O3)C3CC4CC(C3)CC2C4)c2cccnc12 (mixture of isomers)	5.09	4.80	< 4.30	5.14	4.59	15	3.52	–	–	–	–	–	–	–	–	–
O=C1CCC2(CC1)OCC1(OO2)C2CC3CC(C2)CC1C3 (centres undefined)	< 4.00	< 4.00	< 4.00	< 4.00	< 4.00	–	–	–	–	–	–	–	–	–	–	–
O=C(N[C@H]1CC[C@@]2(CC1)OC[C@]1(OO2)C2CC3CC(C2)CC1C3)c1ccc(O)c(O)c1 (mixture of isomers)	4.46	< 4.30	< 4.30	< 4.30	< 4.30	10	–	–	–	–	–	–	–	–	–	–
Oc1ccc(NC2CCC3(CC2)OCC2(CO3)C3CC4CC(C3)CC2C4)c2cccnc12 (mixture of isomers)	4.89	4.34	< 4.30	4.69	4.38	–	2.06	–	–	–	–	–	–	–	–	–
O=C1CCC2(CC1)OOC1(O2)C2CC3CC(C2)CC1C3 (centres undefined)	< 4.00	< 4.00	< 4.00	< 4.00	< 4.00	–	–	–	–	–	–	–	–	–	–	–
O=C(NC1CCC2(CC1)OOC1(OO2)C2CC3CC(C2)CC1C3)c1ccc(O)c(O)c1 (centres undefined)	4.60	< 4.30	< 4.30	4.47	< 4.30	10	–	Active	Active	36	Stable	–	–	–	–	–
O=C(O)c1ccc(O)c(O)c1 [PROTOCATECHUIC ACID]	< 4.30	< 4.30	< 4.30	< 4.30	< 4.30	–	–	–	–	–	–	–	–	–	–	–
O=C(NC1CCC2(CC1)OCC1(CO2)C2CC3CC(C2)CC1C3)c1ccc(O)c(O)c1 (mixture of isomers)	4.52	< 4.30	< 4.30	< 4.30	< 4.30	–	–	–	–	–	–	–	–	–	–	–
O=C(NO)[C@H]1CC[C@@]2(CC1)OC[C@]1(OO2)C2CC3CC(C2)CC1C3 (mixture of isomers)	< 4.30	< 4.30	< 4.30	< 4.30	< 4.30	–	–	–	–	–	–	–	–	–	–	–
Oc1ccc(N[C@H]2CC[C@]3(CC2)OC[C@]2(O3)C3CC4CC(C3)CC2C4)c2cccnc12 (mixture of isomers)	5.04	4.76	< 4.30	4.90	4.52	–	2.39	–	–	–	–	–	–	–	–	–
O=C(O)[C@H]1CC[C@]2(CC1)OO[C@]1(O2)C2CC3CC(C2)CC1C3	< 4.00	< 4.00	< 4.00	< 4.00	< 4.00	–	–	–	–	–	–	–	–	–	–	–
O=C(O)C1CCC2(CC1)OOC1(OO2)C2CC3CC(C2)CC1C3 (centres undefined)	< 4.00	< 4.00	< 4.00	< 4.00	< 4.00	–	–	–	–	–	–	–	–	–	–	–
C[C@H]1[C@@H](O)O[C@@H]2O[C@@]3(C)CC[C@H]4[C@H](C)CC[C@@H]1[C@@]24OO3 [ARTENIMOL]	4.73	4.52	< 4.00	4.86	4.46	–	2.52	–	–	–	–	–	–	–	–	–
O=C1CCC2(CC1)OOC1(OO2)C2CC3CC(C2)CC1C3	< 4.00	< 4.00	< 4.00	< 4.00	< 4.00	–	–	–	–	–	–	–	–	–	–	–
CC(=O)N(O)CCCCCNC(=O)CCC(=O)N(O)CCCCCNC(=O)CCC(=O)N(O)CCCCCN [DEFEROXAMINE]	–	–	–	–	–	–	–	–	–	–	–	5	–	–	–	–
Oc1ccc(NC2CCC3(CC2)OOC2(OO3)C3CC4CC(C3)CC2C4)c2cccnc12 (mixture of isomers)	5.22	4.93	< 4.30	5.12	4.56	15	3.71	Active	Active	–	Stable	–	12.2	33.2	18	Dose-dependent effect
